Experimental data reported in paper PMC7986981 (ACS Pharmacology & Translational Science, 2021).
Where two headings read alike, the source gives them in different places. Where a SMILES comes first, the peptide text is derived from it. The star is where a group is joined. Cbz = O=C(OCc1ccccc1)*

How the values were obtained:
[1] = oral drugs, no reference given; cited from earlier work
SARS-CoV-2 3CL-Pro = SARS-CoV-2 3CL-Pro (Severe acute respiratory syndrome coronavirus 2, UniProt P0DTD1); assay: biochemical; assay type: biochemical
SARS-CoV 3CL-Pro = conditions: cited from earlier work
[2] = system: SARS-CoV-2 cytopathic effect in Vero-E6 cells; assay type: cell-based
[3] = system: SARS-CoV-2 CPE in Caco-2 cells; conditions: cited from earlier work
MERS 3CL-Pro = MERS 3CL-Pro (Middle East respiratory syndrome-related coronavirus, UniProt K9N7C7); assay type: biochemical; conditions: read-out: IC50 MERS 3CL-Pro
deubiquitinating enzymes = conditions: read-out: IC50 values against several deubiquitinating enzymes; cited from earlier work
chymotrypsin = assay type: biochemical; conditions: 1 mM DTT
SARS-CoV-2 = assay type: cell-based; conditions: read-out: vRNA reduction / viral replication IC50 in Vero-E6 (qPCR)
[4] = 20 μM compound, result in words
[5] = read-out: SARS-CoV-2 3CL-Pro IC50, without DTT, values given in nM
[6] = read-out: SARS-CoV-2 3CL-Pro IC50
[7] = read-out: HP 3CL-Pro IC50, hit profiling, without DTT

Sequence of MERS 3CL-Pro (K9N7C7 3248-3553 limits assumed): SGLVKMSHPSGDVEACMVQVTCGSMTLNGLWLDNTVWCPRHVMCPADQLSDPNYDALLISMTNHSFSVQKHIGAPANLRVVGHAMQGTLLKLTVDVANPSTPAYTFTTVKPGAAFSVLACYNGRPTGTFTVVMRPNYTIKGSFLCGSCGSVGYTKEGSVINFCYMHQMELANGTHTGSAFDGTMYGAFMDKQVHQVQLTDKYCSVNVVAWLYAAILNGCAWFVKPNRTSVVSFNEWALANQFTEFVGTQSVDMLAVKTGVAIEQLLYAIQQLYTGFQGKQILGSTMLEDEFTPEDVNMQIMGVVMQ

## COCCCOc1ccnc(C[S+]([O-])c2nc3ccccc3[nH]2)c1C (stereo not drawn) [rabeprazole]
[1]
  measured acute toxicity in rodents: higher than 5 mg/kg

## O=c1sn(-c2cccc3ccccc23)c(=O)n1Cc1ccccc1 [Tideglusib]
SARS-CoV-2 3CL-Pro; [4]
  effect of DTT (0 and 1 mM) on SARS-CoV-2 3CL-Pro inhibition: loss of inhibitory capacity

## zinc pyrithione
SARS-CoV 3CL-Pro; read-out: SARS-CoV 3CL-Pro IC50
  IC50: 800 nM
SARS-CoV-2 3CL-Pro
  effect of DTT (0 and 1 mM) on SARS-CoV-2 3CL-Pro inhibition: lost its inhibitory effects in the presence of DTT
  effect of preincubation time (15, 30, 60 min) on inhibition: increased with preincubation time
  fold more potent after preincubation at 37 °C versus 25 °C: 3 fold

## Oc1cc(CNC(=S)/C=C/c2cc(O)c(O)c(Br)c2)cc(O)c1O [NT-157]
SARS-CoV-2 3CL-Pro; read-out: SARS-CoV-2 3CL-Pro IC50 (unit inferred)
  IC50: 500 nM

## NC(CO)C(=O)NNCc1ccc(O)c(O)c1O (stereo not drawn) [Benserazide hdrochloride]
[1]
  measured acute toxicity in rodents: higher than 5 mg/kg

## [H]/N=C(\N/C(=N/[H])NCCCCCCNC(=N)NC(=N)Nc1ccc(Cl)cc1)Nc1ccc(Cl)cc1 [Chlorhexidine]
SARS-CoV-2 3CL-Pro; [4]
  effect of DTT (0 and 1 mM) on SARS-CoV-2 3CL-Pro inhibition: not an effective inhibitor

## COC(=O)CC[C@H](NC(=O)[C@H](CC(=O)OC)NC(=O)OCc1ccccc1)C(=O)N[C@H](C(=O)N[C@@H](CC(=O)OC)C(=O)CF)C(C)C [Z-DEVD-FMK]
SARS-CoV-2 3CL-Pro; own IC50 versus literature reports (Z-DEVD-FMK: ref 13)
  fold higher potency than previously reported: 600 fold
SARS-CoV-2 3CL-Pro; [5]
  IC50: 10 nM
[2]
  anti-CPE effect in Vero-E6 phenotypic assay: did not influence CPE

## Cc1ccc(-n2sc3ccccc3c2=O)cc1 [PBIT]
SARS-CoV-2 3CL-Pro; [6]
  IC50: 20 nM

## CCOC(=O)/C=C/[C@H](C[C@@H]1CCNC1=O)NC(=O)[C@@H](CC(=O)[C@@H](NC(=O)c1cc(C)on1)C(C)C)Cc1ccc(F)cc1 [rupintrivir]
SARS-CoV 3CL-Pro
  activity against SARS-CoV 3CL-Pro: lacks activity

## CN1CCc2cccc3c2[C@H]1Cc1ccc(O)c(O)c1-3 [apomorphine]
[1]
  measured acute toxicity in rodents: higher than 5 mg/kg

## CCCC[C@@H](C=O)NC(=O)[C@H](CC(C)C)NC(=O)OCc1ccccc1 [calpeptin]
SARS-CoV-2 3CL-Pro; [4]
  effect of DTT (0 and 1 mM) on SARS-CoV-2 3CL-Pro inhibition: retained its inhibitory effect independent of DTT
SARS-CoV-2 3CL-Pro; 25 °C, 20 μM, result in words
  effect of preincubation time (15, 30, 60 min) on inhibition: unchanged

## CC(C)(C)NC(=O)N[C@H](C(=O)N1C[C@H]2[C@@H]([C@H]1C(=O)NC(CC1CCC1)C(=O)C(N)=O)C2(C)C)C(C)(C)C (stereo partly drawn) [boceprevir]
SARS-CoV-2 3CL-Pro; read-out: HC 3CL-Pro Inhibition [%] (20 μM), hit confirmation, triplicate, 20 μM compound
  inhibition at 20 µM: < 50%

## Nc1nc2c(ncn2[C@@H]2O[C@H](CO)[C@@H](O)[C@H]2O)c(=S)[nH]1 [Thioguanosine]
[3]
  anti-CPE activity against SARS-CoV-2 in Caco-2 cells (words): anti-SARS-CoV-2 CPE effects
[3]; listed as thioguanosine
  anti-CPE activity against SARS-CoV-2 in Caco-2 cells (words): active

## N#CSc1cc(SC#N)c(N)nc1N [PR-619]
MERS 3CL-Pro
  IC50: 2300 nM
SARS-CoV-2 3CL-Pro; [7]
  IC50: 400 nM
[3]
  anti-CPE activity against SARS-CoV-2 in Caco-2 cells (words): inactive
Deubiquitinating enzymes
  IC50: 2000 to 10000 nM
[2]
  anti-CPE effect in Vero-E6 phenotypic assay: inactive

## O=c1c2ccccc2sn1-c1ccccc1 [PD08290]
SARS-CoV-2 3CL-Pro; [6]
  IC50: 20 nM

## O=c1c2ccccc2[se]n1-c1ccccc1 [Ebselen]
SARS-CoV-2 3CL-Pro
  effect of DTT (0 and 1 mM) on SARS-CoV-2 3CL-Pro inhibition: loss of inhibitory capacity

## Cn1sc(=O)n(Cc2ccccc2)c1=O [TDZD-8]
SARS-CoV-2 3CL-Pro; [4]
  effect of DTT (0 and 1 mM) on SARS-CoV-2 3CL-Pro inhibition: insensitive to DTT

## CC(=O)[O][Hg][c]1ccccc1 [phenylmercuric acetate]
SARS-CoV-2 3CL-Pro; [5]
  IC50: 10 nM

## O=c1c(O)c(-c2cc(O)c(O)c(O)c2)oc2cc(O)cc(O)c12 [Myricetin]
[2]
  anti-CPE effect in Vero-E6 phenotypic assay: not reflected in anti-CPE

## CC(Cc1ccc(O)c(O)c1)C(C)Cc1ccc(O)c(O)c1 (stereo not drawn) [nordihydroguaiaretic acid]
SARS-CoV-2 3CL-Pro; [7]
  IC50: 2590 nM

## O=C(O[C@@H]1Cc2c(O)cc(O)cc2O[C@@H]1c1cc(O)c(O)c(O)c1)c1cc(O)c(O)c(O)c1 [epigallocatechin gallate, (-)-Epigallocatechin gallate]
SARS-CoV-2 3CL-Pro; [4]
  effect of DTT (0 and 1 mM) on SARS-CoV-2 3CL-Pro inhibition: did not show DTT dependence

## Oc1c(I)cc(I)c(O)c1I [riodoxol]
[1]
  measured acute toxicity in rodents: higher than 5 mg/kg

## Cc1ccc(C)c(-n2sc3cc(F)ccc3c2=O)c1 [MLS0315771]
SARS-CoV-2 3CL-Pro; [6]
  IC50: 20 nM

## CCN(CC)C(=S)SSC(=S)N(CC)CC [Disulfiram]
SARS-CoV-2 3CL-Pro; [4]
  effect of DTT (0 and 1 mM) on SARS-CoV-2 3CL-Pro inhibition: loss of inhibitory capacity

## CCCCCCNC(=O)n1cc(F)c(=O)[nH]c1=O [Carmofur]
chymotrypsin
  Chymotrypsin Inhibition [%] +DTT (10 μM): 14%
SARS-CoV-2 3CL-Pro; [4]
  effect of DTT (0 and 1 mM) on SARS-CoV-2 3CL-Pro inhibition: insensitive to DTT

## O=c1cc(-c2ccccc2)oc2cc(O)c(O)c(O)c12 [Baicalein]
SARS-CoV-2 3CL-Pro; [4]
  effect of DTT (0 and 1 mM) on SARS-CoV-2 3CL-Pro inhibition: loss of inhibitory capacity

## O=c1c2cc(F)ccc2sn1-c1cc(S(=O)(=O)N2CCOCC2)ccc1N1CCOCC1 [ML345]
SARS-CoV-2 3CL-Pro; [6]
  IC50: 20 nM

## Oc1cc2c(cc1O)[C@H]1c3ccccc3CN[C@@H]1CC2 (racemic) [Dihydrexidine]
SARS-CoV-2 3CL-Pro; HP 3CL-Pro IC50 (μM), hit profiling, without DTT
  IC50: 1100 nM

## CC[C@H](CO)Nc1nc(NCc2ccc(-c3ccccn3)cc2)c2ncn(C(C)C)c2n1 [CR8-(R)]
SARS-CoV-2 3CL-Pro; read-out: HP 3CL-Pro IC50
  IC50: 800 nM
[2]
  anti-CPE effect in Vero-E6 phenotypic assay: no anti-CPE effect

## CCC(C)SSc1ncc[nH]1 (stereo not drawn) [PX-12]
MERS 3CL-Pro
  IC50: 7600 nM

## CC(C)C[C@@H](C=O)NC(=O)[C@H](CC(C)C)NC(=O)[C@H](CC(C)C)NC(=O)OCc1ccccc1 [MG-132] (Cbz-Leu-Leu-Leu-aldehyde)
SARS-CoV-2
  IC50: 100 nM
[3]
  anti-CPE activity against SARS-CoV-2 in Caco-2 cells (words): active
